According to ChEMBL document CHEMBL4673225, “Highly Selective PTK2 Proteolysis Targeting Chimeras to Probe Focal Adhesion Kinase Scaffolding Functions” (J Med Chem, 2019):
The source made the active and inactive calls. No cut-off for these calls is given here.

Assays:
[1] = biological target: von Hippel-Lindau disease tumor suppressor/Focal adhesion kinase 1 (Homo sapiens, UniProt Q05397+P40337); assay: Protac activity at VHL/PTK2 in human A549 cells assessed as induction of PTK2 degradation at 1 to 100000 nM incubated for 18 hrs by protein capillary electrophoresis method; format: cell-based; details: dose 1-100000 nM
von Hippel-Lindau disease tumor suppressor/Focal adhesion kinase 1, sequence (P40337 whole entry partner): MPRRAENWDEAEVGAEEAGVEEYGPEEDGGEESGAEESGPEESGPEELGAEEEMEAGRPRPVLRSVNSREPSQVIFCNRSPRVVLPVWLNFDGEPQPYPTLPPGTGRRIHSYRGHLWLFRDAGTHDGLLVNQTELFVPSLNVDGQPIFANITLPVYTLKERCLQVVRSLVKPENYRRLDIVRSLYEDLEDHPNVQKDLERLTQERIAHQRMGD
von Hippel-Lindau disease tumor suppressor/Focal adhesion kinase 1, sequence (Q05397 2-1052 limits assumed): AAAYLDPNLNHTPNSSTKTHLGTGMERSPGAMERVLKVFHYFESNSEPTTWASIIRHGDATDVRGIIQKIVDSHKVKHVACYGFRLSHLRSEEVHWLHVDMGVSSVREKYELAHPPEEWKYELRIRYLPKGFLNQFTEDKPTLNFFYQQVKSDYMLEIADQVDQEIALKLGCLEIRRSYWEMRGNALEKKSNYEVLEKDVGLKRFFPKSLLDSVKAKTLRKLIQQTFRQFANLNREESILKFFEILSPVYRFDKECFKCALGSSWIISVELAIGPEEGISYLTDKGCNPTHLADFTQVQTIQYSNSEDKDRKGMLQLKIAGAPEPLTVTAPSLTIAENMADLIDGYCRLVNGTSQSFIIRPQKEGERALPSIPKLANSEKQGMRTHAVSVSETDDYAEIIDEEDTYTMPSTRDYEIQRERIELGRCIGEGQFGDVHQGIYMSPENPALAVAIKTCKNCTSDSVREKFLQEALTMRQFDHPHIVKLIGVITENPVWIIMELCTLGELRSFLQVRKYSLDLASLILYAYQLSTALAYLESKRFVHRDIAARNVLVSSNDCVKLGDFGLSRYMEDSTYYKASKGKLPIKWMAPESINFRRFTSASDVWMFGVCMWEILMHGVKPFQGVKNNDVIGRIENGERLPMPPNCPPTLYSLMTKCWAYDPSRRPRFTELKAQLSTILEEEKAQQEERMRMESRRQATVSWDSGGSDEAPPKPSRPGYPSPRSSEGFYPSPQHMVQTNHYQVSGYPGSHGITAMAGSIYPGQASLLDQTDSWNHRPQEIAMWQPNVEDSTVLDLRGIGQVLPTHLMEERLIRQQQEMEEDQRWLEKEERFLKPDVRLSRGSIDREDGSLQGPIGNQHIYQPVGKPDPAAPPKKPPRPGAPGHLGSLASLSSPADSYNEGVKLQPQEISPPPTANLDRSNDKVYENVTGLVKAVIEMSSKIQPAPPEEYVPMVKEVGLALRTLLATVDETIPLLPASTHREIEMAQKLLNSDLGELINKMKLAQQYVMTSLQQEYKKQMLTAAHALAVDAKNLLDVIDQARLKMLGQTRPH

SNU-387 = assay: cells; details: Homo sapiens, SNU-387, 144 h, read-out: pIC50 (converted)
Description: Antiproliferative activity against human SNU-387 cells incubated for 6 days by CellTiter-Glo luminescent cell viability assay

cells [2] = details: Homo sapiens, HLF1, 144 h, read-out: pIC50 (converted)
Description: Antiproliferative activity against human HLF1 cells incubated for 6 days by CellTiter-Glo luminescent cell viability assay

HuCCT-1 = assay: cells; details: Homo sapiens, HuCCT-1, 144 h, read-out: pIC50 (converted)
Description: Antiproliferative activity against human HuCCT-1 cells incubated for 6 days by CellTiter-Glo luminescent cell viability assay

cells [3] = details: Homo sapiens, Hep3B, 144 h, read-out: pIC50 (converted)
Description: Antiproliferative activity against human Hep3B2.1-7 cells incubated for 6 days by CellTiter-Glo luminescent cell viability assay

HepG2 = assay: cells; details: Homo sapiens, HepG2, 144 h, read-out: pIC50 (converted)
Description: Antiproliferative activity against human HepG2 cells incubated for 6 days by CellTiter-Glo luminescent cell viability assay

HLE = assay: cells; details: Homo sapiens, 144 h, read-out: pIC50 (converted)
Description: Antiproliferative activity against human HLE cells incubated for 6 days by CellTiter-Glo luminescent cell viability assay

SNU-423 = assay: cells; details: Homo sapiens, SNU-423, 144 h, read-out: pIC50 (converted)
Description: Antiproliferative activity against human SNU-423 cells incubated for 6 days by CellTiter-Glo luminescent cell viability assay

SNU-398 = assay: cells; details: Homo sapiens, SNU-398, 144 h, read-out: pIC50 (converted)
Description: Antiproliferative activity against human SNU-398 cells incubated for 6 days by CellTiter-Glo luminescent cell viability assay

Huh-7 = assay: cells; details: Homo sapiens, Huh-7, 144 h, read-out: pIC50 (converted)
Description: Antiproliferative activity against human Huh-7 cells incubated for 6 days by CellTiter-Glo luminescent cell viability assay

SK-HEP1 = assay: cells; details: Homo sapiens, SK-HEP1, 144 h, read-out: pIC50 (converted)
Description: Antiproliferative activity against human SK-HEP1 cells incubated for 6 days by CellTiter-Glo luminescent cell viability assay

cells [4] = details: Homo sapiens, HuH-1, 144 h, read-out: pIC50 (converted)
Description: Antiproliferative activity against human HuH-1 cells incubated for 6 days by CellTiter-Glo luminescent cell viability assay

SMILES | Activity [1] | IC50 (SNU-387) [µM] | IC50 (cells [2]) [µM] | IC50 (HuCCT-1) [µM] | IC50 (cells [3]) [µM] | IC50 (HepG2) [µM] | IC50 (HLE) [µM] | IC50 (SNU-423) [µM] | IC50 (SNU-398) [µM] | IC50 (Huh-7) [µM] | IC50 (SK-HEP1) [µM] | IC50 (cells [4]) [µM]
COc1cc(C(=O)NCCOCCOCCOCC(=O)N[C@H](C(=O)N2C[C@@H](O)C[C@H]2C(=O)NCc2ccc(-c3scnc3C)cc2)C(C)(C)C)ccc1Nc1ncc(C(F)(F)F)c(Oc2cccc3c2C(=O)CC3)n1 | inactive |  |  |  |  |  |  |  |  |  |  | 
COc1cc(C(=O)NC2CCN(C)CC2)ccc1Nc1ncc(C(F)(F)F)c(Oc2cccc3c2C(=O)CC3)n1 |  | 6.31 | 3.98 | 6.31 | 5.01 | 3.16 | 7.94 | 3.98 | 6.31 | 3.98 | 6.31 | 3.98
